Experimental data as given in patent US20100016221A1, “METHOD OF DEGRADING PROTEIN BY CHAPERONE-MEDIATED AUTOPHAGY” (RIKEN, priority 2008, published 2010).

Columns and labels:
[1] = tested on: polyQ inclusions in 150Q Neuro2a cells (tNhtt-EGFP-150Q); assay: ArrayScan quantification of polyQ inclusion formation in inducible 150Q Neuro2a cells; format: cell-based, mouse; details: constructs without mRFP, induced and differentiated for 24 hours
Protocol: Mouse neuroblastoma (Neuro2a) cells were maintained in Dulbecco's modified Eagle's medium (Sigma) supplemented with 10% heat-inactivated fetal bovine serum (Sigma), 100 U/ml penicillin and 100 μg/ml streptomycin (Invitrogen) at 37° C. in an atmosphere containing 5% CO2 and 95% air. Establishment of stable Neuro2a cell lines with the ecdysone-inducible mammalian expression system (Invitrogen), that express tNhtt-EGFP-16Q (16Q Neuro2a cells), tNhtt-EGFP-150Q (150Q Neuro2a cells) and tNhtt-EGFP-150Q-nls (150Q-nls Neuro2a cells) has been described earlier (T. Nagai et al., supra, H. Doi et al., supra, E. A. Zemskov et al., J Neurochem. 87, 2 (2003)). Neuro2a cells were differentiated with 5mM dbcAMP (N^6, 2′-O-dibutyryladenosine-3′,5′-cyclic monophosphate sodium salt) (Nacalai Tesque) and induced to express tNhtt-polyQ with 2 μM ponasterone A (ponA; Invitrogen) for indicated times. Neuro2a/FRT/TR cell line was generated as described in the protocol for Flp-in/T-Rex system (Invitrogen). Neuro2a tNhtt-62Q-kikGR cell line was generated by transfecting Neuro2a/FRT/TR cells with the pFRT-HD62-KikGR and pOG44 (Invitrogen) constructs using Lipofectamine 2000 reagent and selected with 200 μg/ml hygromycin. The expression of the pFRT-tNhtt-62Q-KikGR was induced by 18 doxycycline treatment of the cells. For the photo-induced kikGR cleavage, cells were exposed to ˜400 nm wavelength for 5 minutes. Rat pheochromocytoma (PC12) cells were grown in the same conditions as Neuro2a cells, except for the serum composition of 5% of fetal bovine and 10% of horse serum (Sigma). All transient transfections were performed with Lipofectamine 2000 (Invitrogen) according to the manufacturer's instruction.
For the quantification of the inclusions, cells were grown in 24-well plates for indicated periods, fixed in 4% paraformaldehyde, washed and incubated with Hoechst 33258 at 1/1000 dilution in PBS. Cells were analyzed by ArrayScan® V^TI High Content Screening (HSC) Reader (Cellomics) using Target Activation BioApplication (TABA). TABA analyzes images acquired by a HSC Reader and provides measurements of the intracellular fluorescence intensity and localization on a cell-by-cell basis.
In each well, at least 10000 cells were counted and quantified for the presence of the inclusions. Nuclei stained with Hoechst 33285 provided the autofocus target and their count gave the exact number of the quantified cells. The screening itself consisted of two scans using Hoechst, FITC (for GFP) and TRITC (for RFP) fluorescence. Firstly, number of inclusions in transfected cells was calculated when fluorescent spots at size of at least 5 pixels (magnification 20× for cytoplasmic and 40× for nuclear aggregates) with average GFP intensity more than 1500 in the RFP background were counted. Secondly, nuclei were defined as the objects of interest and the cells with average intensity more than 50 within 3 pixels from the nucleus were selected for the analysis. The percentage of the cells with aggregates was then calculated. When the constructs without mRFP were used for transfection, the procedure was same, except the RFP intensity was not measured. Scanning was performed with triplicate or quadruplicate in each experimental condition. Data was generated from the quantification of more than 250,000 cells in each experimental set-up.

150Q Neuro2a cells = assay: Cell death assay (propidium iodide uptake) in 150Q Neuro2a cells; format: cell-based, mouse; details: after 60 hours of induction
Protocol: Mouse neuroblastoma (Neuro2a) cells were maintained in Dulbecco's modified Eagle's medium (Sigma) supplemented with 10% heat-inactivated fetal bovine serum (Sigma), 100 U/ml penicillin and 100 μg/ml streptomycin (Invitrogen) at 37° C. in an atmosphere containing 5% CO2 and 95% air. Establishment of stable Neuro2a cell lines with the ecdysone-inducible mammalian expression system (Invitrogen), that express tNhtt-EGFP-16Q (16Q Neuro2a cells), tNhtt-EGFP-150Q (150Q Neuro2a cells) and tNhtt-EGFP-150Q-nls (150Q-nls Neuro2a cells) has been described earlier (T. Nagai et al., supra, H. Doi et al., supra, E. A. Zemskov et al., J Neurochem. 87, 2 (2003)). Neuro2a cells were differentiated with 5mM dbcAMP (N^6, 2′-O-dibutyryladenosine-3′,5′-cyclic monophosphate sodium salt) (Nacalai Tesque) and induced to express tNhtt-polyQ with 2 μM ponasterone A (ponA; Invitrogen) for indicated times. Neuro2a/FRT/TR cell line was generated as described in the protocol for Flp-in/T-Rex system (Invitrogen). […]
For quantification of cell death, 5 μg/ml each of Hoechst 33342 and propidium iodide (PI) were added to differentiated and induced Neuro2a cells transiently transfected with either of the tested constructs (FIG. 6A). After 10 minutes at 37° C., the number of cells with PI uptake over the total number of cells was calculated by ArrayScan.

150Q-EGFP = biological target: T1, 150Q-EGFP (Homo sapiens, UniProt P42858); assay: Co-transfection with 150Q-EGFP in Neuro2a cells, confocal imaging with Lysotracker-rhodamine; format: cell-based; details: co-expression for 16 hours
T1 construct: N-terminal fragment of human huntington exon 1 (tNhtt); expressed in transfected cells; host or cells: Neuro2a cells, transient co-transfection (pcDNA3.1)
T1 sequence (P42858 with tags, fused parts or gaps): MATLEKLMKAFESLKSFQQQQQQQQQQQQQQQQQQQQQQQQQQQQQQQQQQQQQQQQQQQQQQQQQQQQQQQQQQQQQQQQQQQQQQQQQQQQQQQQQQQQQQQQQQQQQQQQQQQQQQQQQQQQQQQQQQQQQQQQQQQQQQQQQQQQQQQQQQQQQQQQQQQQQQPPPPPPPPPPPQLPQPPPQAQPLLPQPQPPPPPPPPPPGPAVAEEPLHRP
Source text: The construction of the N-terminal fragment of human huntington exon 1 (tNhtt) encoding 60 CAG repeats was previously described (G. H. Wang et al., Neuroreport 10, 12(1999)). This fragment was fused to the N-terminal of a variant of yellow fluorescent protein (Venus) (T. Nagai et al., Nat. Biotechnol. 20, 1 (2002)) and inserted into the pcDNA3.1 vector (60Q). Two Hsc70 binding motifs (HSC70bm) (SEQ ID NOs:9 and 10: in bold) were inserted between the Cfr13I and BamHI cutting sites of 60Q: 5′-GTTAAGAAGGATCAA-GCTGGAGCCGCTGCACCG-AAGTTCGAACGTCAA-3′ (SEQ ID NO:11). The tNhtt-16Q-EGFP and tNhtt-150Q-EGFP plasmids for transient transfection were prepared by the introduction of the coding sequence into pcDNA3.1 vector (Invitrogen). […]
To investigate whether the (R)HQ targets the polyQ to lysosomes, the present inventors co-transfected HQ or other constructs with 16Q-EGFP or 150Q-EGFP to Neuro2a cells for 16 hours. In the cells expressing 16Q-EGFP, none of the co-transfected constructs had any effect on the subcellular distribution of the green fluorescence (FIG. 2C). […] To confirm this observation, the present inventors co-transfected the tested constructs with tNhtt-60Q to Neuro2a cells, 16 hours later purified intact lysosomes and analyzed them for the presence of the polyQ protein. […]

## HSC70bm-(QBP1)2 (MARVKKDQAEPLHRKFERQPPGSNWKWWPGIFDSNWKWWPGIFD) [HQ]
[1]
  decrease of aggregation compared to control counterparts (S and HS): 58.5%
150Q Neuro2a cells
  decrease of the percentage of PI-positive cells: 37.4%
150Q-EGFP
  subcellular distribution of 150Q-EGFP fluorescence: fluorescence intensity decreased, redistributed and partly co-localized with the lysosomal marker
